According to patent publication US20240067625A1, “SMALL-MOLECULE MODULATORS OF THE ORPHAN NUCLEAR RECEPTOR TLX” (priority 2020, published 2024):

Target: TLX LBD (Homo sapiens (Human), UniProt Q9Y466)
Experiment: ALPHA screen assay for TLX LBD and coactivator peptide recruitment
Format: biochemical
Details: Table 3; for Average ALPHA signal at 200 μM (std. dev.): mean (std. dev.)
Protocol: Assays were performed according to the manufacturer's protocol (PerkinElmer, USA), with the following modifications: Ligands were tested for TLX-coactivator binding in 50 mM phosphate buffer, 150 mM NaCl, pH 7, 1 mM DTT and 100 μM CHAPS. Ligands were dissolved and diluted in DMSO as stocks and were prepared in assay buffer from the original stock in the 100% DMSO and added to the assay plate. Biotinylated SRC peptide and polyhistidine tagged TLX LBD were diluted in assay buffer, subsequently added to respective ALPHA beads, under low light. The plates were spun down, mixed with a shaker and incubated for 120 minutes and read on a TECAN Plate reader using the manufacturer's protocol.

Chain of TLX LBD (Q9Y466 155-383): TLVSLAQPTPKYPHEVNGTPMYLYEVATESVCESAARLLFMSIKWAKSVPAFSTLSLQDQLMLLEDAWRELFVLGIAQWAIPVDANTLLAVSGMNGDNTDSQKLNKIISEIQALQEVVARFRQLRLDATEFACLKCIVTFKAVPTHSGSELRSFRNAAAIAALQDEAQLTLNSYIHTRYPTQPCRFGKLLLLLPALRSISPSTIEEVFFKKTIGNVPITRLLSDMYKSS

Compound	EC50	Average ALPHA signal at 200 μM (std. dev.)
Cc1cc(C(=O)N2CCN(C(c3ccccc3)c3ccccc3)CC2)nn1C [Compound 30, reference compound]	0.0673 nM	1.93 (0.08)
Cc1ccccc1CN1CCN(C(=O)c2cccnc2NCCC(C)C)[C@@H](C)C1 [Compound 31]	0.0138 nM	4.52 (0.06)
Cc1cccc(CN2CCN(C(=O)c3cccnc3NCCC(C)C)[C@@H](C)C2)c1 [Compound 32]	0.0143 nM	3.85 (0.09)
Cc1ccc(CN2CCN(C(=O)c3cccnc3NCCC(C)C)[C@@H](C)C2)cc1 [Compound 33]	0.0187 nM	3.89 (0.21)
CC(C)CCNc1ncccc1C(=O)N1CCN(Cc2ccccn2)C[C@@H]1C [Compound 34]	–	1.29 (0.05)
CC(C)CCNc1ncccc1C(=O)N1CCN(CCCc2ccccc2)C[C@@H]1C [Compound 35]	0.0128 nM	4.57 (0.38)
CCCCCCN1CCN(C(=O)c2cccnc2NCCC(C)C)[C@@H](C)C1 [Compound 36]	0.0126 nM	8.78 (0.30)
CCCCN1CCN(C(=O)c2cccnc2NCCC(C)C)[C@@H](C)C1 [Compound 37]	0.0335 nM	2.30 (0.02)
CC(C)CCNc1ncccc1C(=O)N1CCN(C)C[C@@H]1C [Compound 38]	–	0.85 (0.06)
COc1cccc(CN2CCN(C(=O)c3cccnc3NCCC(C)C)[C@@H](C)C2)c1 [Compound 39]	0.0276 nM	3.19 (0.17)
CC(C)CCNc1ncccc1C(=O)N1CCN(Cc2ccc3cnccc3c2)C[C@@H]1C [Compound 40]	0.0529 nM	2.48 (0.02)
CC(C)CCNc1ncccc1C(=O)N1CCN(CCC2CCN(C(=O)OC(C)(C)C)CC2)C[C@@H]1C [Compound 41]	0.00585 nM	2.73 (0.13)
CC(C)CCNc1ncccc1C(=O)N1CCN(Cc2c[nH]c3ccccc23)C[C@@H]1C [Compound 42]	–	0.96 (0.05)
Cc1ccccc1CN1CCN(C(=O)c2cccnc2NCCC(C)C)[C@H](C)C1 [Compound 43]	–	3.49 (0.17)
Cc1cccc(CN2CCN(C(=O)c3cccnc3NCCC(C)C)[C@H](C)C2)c1 [Compound 44]	0.0124 nM	3.28 (0.09)
Cc1ccc(CN2CCN(C(=O)c3cccnc3NCCC(C)C)[C@H](C)C2)cc1 [Compound 45]	0.0113 nM	3.50 (0.06)
CC(C)CCNc1ncccc1C(=O)N1CCN(Cc2ccccn2)C[C@H]1C [Compound 46]	–	0.86 (0.09)
CCCCCCN1CCN(C(=O)c2cccnc2NCCC(C)C)[C@H](C)C1 [Compound 47]	0.0125 nM	7.81 (0.45)
CC(C)CCNc1ncccc1C(=O)N1CCN(CCCc2ccccc2)C[C@H]1C [Compound 48]	–	3.75 (0.31)
CCCCN1CCN(C(=O)c2cccnc2NCCC(C)C)[C@H](C)C1 [Compound 49]	0.0332 nM	3.09 (0.12)
CC(C)CCNc1ncccc1C(=O)N1CCN(C)C[C@H]1C [Compound 50]	–	0.93 (0.05)
COc1cccc(CN2CCN(C(=O)c3cccnc3NCCC(C)C)[C@H](C)C2)c1 [Compound 51]	0.0199 nM	2.98 (0.10)
CC(C)CCNc1ncccc1C(=O)N1CCN(Cc2ccc3cnccc3c2)C[C@H]1C [Compound 52]	0.0261 nM	2.03 (0.12)
CC(C)CCNc1ncccc1C(=O)N1CCN(CCC2CCN(C(=O)OC(C)(C)C)CC2)C[C@H]1C [Compound 53]	0.00904 nM	2.84 (0.05)
CC(C)CCNc1ncccc1C(=O)N1CCN(Cc2c[nH]c3ccccc23)C[C@H]1C [Compound 54]	–	1.17 (0.06)
